In US6348445B1, “Biologically active peptides with reduced toxicity in animals and a method for preparing same” (priority 1992, dated 2002):

What was measured:
[1] = pharmacokinetics, single intravenous dose, plasma bioassay (E. coli zone clearing); format: in vivo, mice; settings: 140 mg/kg i.v.
Method: A pharmacokinetics study of MSI-1324 in mice using a single dose administration was conducted. Thirty-two CD-1 male mice were injected with MSI-1324 sodium with a dose of 140 mg/kg (corrected for peptide content). Terminal blood samples were obtained from 2 to 4 mice at timepoints of 0 (prior to dosing), 5, 15, 30, 60 min, 2, 4, 6, 24, and 48 hours post-dose. Plasma concentrations were estimated by bioassay.
40 animals CD-1®BR mice (Charles River Lab) with a mean body weight of 25.6 gms at study initiation were used.
A 14 mg/mL solution of MSI-1324 was made in saline (0.9% sodium chloride injectable USP, Baxter) corrected for peptide content.
Thirty-six mice were intravenously administered a single bolus of MSI-1324 at a dose of 140 mg/kg corrected for peptide content using an injection volume of 10 mL/kg of the 14 mg/mL solution. Four mice were not injected and supplied pre-dosing blood samples. Terminal blood samples were obtained via cardiac puncture in halothane-anesthetized mice at timepoints of 0 (prior to dosing), 5, 15, 30, 60 min, 2, 4, 6, 24, and 48 hours post-dose. Two to four mice were terminally bled at each timepoint. The blood samples were centrifuged and plasma transferred into separate tubes for bioassay analysis. The bioassay used was antibacterial zone clearing (disk diffusion) on Escherichia coli lawns.

[2] = maximal tolerated dose, single intravenous administration of Compound 1324; format: in vivo, mice; settings: for Number of Survivors on Day 0: 2 or 6.5 hrs post-administration
Method: Mice received single intravenous administrations of Compound 1324, the methane sulfonate analogue of Compound 843, and were monitored for survival for at least 4 days. There were no deaths at a dose of less than or equal to 180 mg/kg.
To determine the maximal tolerated dose (MTD) and estimate the lethal dose 50% (LD50) of Compound 1324 sodium when administered intravenously in a single-bolus in mice.
Animals: On arrival and study initiation, three groups Thirty-seven male CD-1 mice (Charles River Lab)had average body weights of 39, 28 and 28 gm, respectively.
Solution Prep: A 120 mg/ml of active Compound 1324 (active moiety corrected for) was made in saline. All concentrations from 5 mg/ml to 80 mg/ml were dilutions of the 120 mg/ml solution with saline. The highest concentration used in the intravenous administration was 20 mg/ml.
Mice were randomly assigned to one of ten groups (4 mice per group, except the highest dose group which only had one mouse). Mice were administered intravenously 10 ml/kg of either 0 (saline), 5, 6, 7, 8, 14, 16, 18, or 20 mg/ml solution for doses of […]. One mouse received 14.1 ml/kg of a 20 mg/ml solution for a dose of 282 mg/kg. Mice were monitored for survival for at least four days post-administration.

CCCCCCCC(=O)N[C@@H](CCCNCS(=O)(=O)O)C(=O)N[C@@H](CCCNCS(=O)(=O)O)C(=O)N[C@@H](CC(C)C)C(=O)N[C@@H](CC(C)C)C(=O)N[C@@H](CCCNCS(=O)(=O)O)C(=O)N[C@@H](CCCNCS(=O)(=O)O)C(=O)N[C@@H](CC(C)C)C(=O)N[C@@H](CCCNCS(=O)(=O)O)C(=O)N[C@@H](CCCNCS(=O)(=O)O)C(=O)N[C@@H](CC(C)C)C(N)=O [Compound 1324]
200 to 282 mg/kg: LD50 ([2]; mouse, in vivo, single intravenous bolus, CD-1 mice)
3: Number of Survivors on Day 2 ([2]; IV 200 mg/kg, 4 mice) | Number of Survivors on Day 3 ([2]; IV 200 mg/kg, 4 mice) | Number of Survivors on Day 4 ([2]; IV 200 mg/kg, 4 mice)
< 150 µg/mL: level at 1 h ([1]; male, CD-1, mouse, plasma, iv, limit of detection approximately 150 ug/mL, read-out: plasma concentration at 60 min post-dose)
approximately 600 ug/mL: peak plasma concentration ([1]; estimated by bioassay)
below detection limits of the assay: plasma concentration at 60 min post-dose ([1]; limit of detection approximately 150 ug/mL, listed as MSI-1324)
Three of four: mice that survived ([2]; 200 mg/kg single intravenous)
4: Number of Survivors on Day 1 ([2]; IV 50 mg/kg, 4 mice) | Number of Survivors on Day 2 ([2]; IV 50 mg/kg, 4 mice) | Number of Survivors on Day 3 ([2]; IV 50 mg/kg, 4 mice) | Number of Survivors on Day 4 ([2]; IV 50 mg/kg, 4 mice) | Number of Survivors on Day 5 ([2]; IV 50 mg/kg, 4 mice) | Number of Survivors on Day 0 ([2]; IV 50 mg/kg, 4 mice) | Number of Survivors on Day 1 ([2]; IV 60 mg/kg, 4 mice) | Number of Survivors on Day 2 ([2]; IV 60 mg/kg, 4 mice) | Number of Survivors on Day 3 ([2]; IV 60 mg/kg, 4 mice) | Number of Survivors on Day 4 ([2]; IV 60 mg/kg, 4 mice) | Number of Survivors on Day 5 ([2]; IV 60 mg/kg, 4 mice) | Number of Survivors on Day 0 ([2]; IV 60 mg/kg, 4 mice) | Number of Survivors on Day 1 ([2]; IV 70 mg/kg, 4 mice) | Number of Survivors on Day 2 ([2]; IV 70 mg/kg, 4 mice) | Number of Survivors on Day 3 ([2]; IV 70 mg/kg, 4 mice) | Number of Survivors on Day 4 ([2]; IV 70 mg/kg, 4 mice) | Number of Survivors on Day 5 ([2]; IV 70 mg/kg, 4 mice) | Number of Survivors on Day 0 ([2]; IV 70 mg/kg, 4 mice) | Number of Survivors on Day 1 ([2]; IV 80 mg/kg, 4 mice) | Number of Survivors on Day 2 ([2]; IV 80 mg/kg, 4 mice) | Number of Survivors on Day 3 ([2]; IV 80 mg/kg, 4 mice) | Number of Survivors on Day 4 ([2]; IV 80 mg/kg, 4 mice) | Number of Survivors on Day 5 ([2]; IV 80 mg/kg, 4 mice) | Number of Survivors on Day 0 ([2]; IV 80 mg/kg, 4 mice) | Number of Survivors on Day 1 ([2]; IV 140 mg/kg, 4 mice) | Number of Survivors on Day 2 ([2]; IV 140 mg/kg, 4 mice) | Number of Survivors on Day 3 ([2]; IV 140 mg/kg, 4 mice) | Number of Survivors on Day 4 ([2]; IV 140 mg/kg, 4 mice) | Number of Survivors on Day 5 ([2]; IV 140 mg/kg, 4 mice) | Number of Survivors on Day 7 ([2]; IV 140 mg/kg, 4 mice) | Number of Survivors on Day 0 ([2]; IV 140 mg/kg, 4 mice) | Number of Survivors on Day 1 ([2]; IV 160 mg/kg, 4 mice) | Number of Survivors on Day 2 ([2]; IV 160 mg/kg, 4 mice) | Number of Survivors on Day 3 ([2]; IV 160 mg/kg, 4 mice) | Number of Survivors on Day 4 ([2]; IV 160 mg/kg, 4 mice) | Number of Survivors on Day 5 ([2]; IV 160 mg/kg, 4 mice) | Number of Survivors on Day 7 ([2]; IV 160 mg/kg, 4 mice) | Number of Survivors on Day 0 ([2]; IV 160 mg/kg, 4 mice) | Number of Survivors on Day 1 ([2]; IV 180 mg/kg, 4 mice) | Number of Survivors on Day 2 ([2]; IV 180 mg/kg, 4 mice) | Number of Survivors on Day 3 ([2]; IV 180 mg/kg, 4 mice) | Number of Survivors on Day 4 ([2]; IV 180 mg/kg, 4 mice) | Number of Survivors on Day 5 ([2]; IV 180 mg/kg, 4 mice) | Number of Survivors on Day 7 ([2]; IV 180 mg/kg, 4 mice) | Number of Survivors on Day 0 ([2]; IV 180 mg/kg, 4 mice)
5 min: time of peak concentration post-dose ([1]; first sampling timepoint)
0: Number of Survivors on Day 2 ([2]; IV 282 mg/kg, 1 mouse) | Number of Survivors on Day 3 ([2]; IV 282 mg/kg, 1 mouse) | Number of Survivors on Day 4 ([2]; IV 282 mg/kg, 1 mouse)
